Experiments:
[1] = test system: hamsters with cerebellar ataxia; assay: Rotarod test in hamsters with cerebellar ataxia; type: in vivo, hamster; settings: for improving effect on motor coordination (in words): cerebellar ataxia hamsters, agents of Example 1 compared among pentamethine cyanine dye compounds; for Time of falling from rotarod: hamster with cerebellar ataxia, agent of Example 1, 0.5 ml/hamster intraperitoneally once a day for 56 days
[2] = test system: hamsters with cerebellar ataxia; assay: Slant tolerance test in hamsters with cerebellar ataxia; type: in vivo, hamster; settings: hamster with cerebellar ataxia; agent of Example 1, 0.5 ml/hamster intraperitoneally once a day for 56 days
[3] = test system: hamsters with cerebellar ataxia; assay: Falling down frequency of hamsters with cerebellar ataxia; type: in vivo, hamster; settings: hamster with cerebellar ataxia; agent of Example 1, 0.5 ml/hamster intraperitoneally once a day for 56 days
PC12-HS cells [4] = assay: Evaluation A: neurocyte (cell)-growth-promoting action, ALAMAR BLUE; type: cell-based, rat; settings: for Cell survival percentage (%): cell-growth promotion; for optimum concentration for exhibiting cell-growth-promoting action: from Table 9
PC12-HS cells [5] = assay: Evaluation B: neurite-outgrowth action in presence of NGF; type: cell-based, rat; settings: for Evaluation B: Neurite-outgrowth action: 50 μl of 400 ng/ml test sample solution per well + NGF final 5 ng/ml
[6] = compound concentration 25 ng/ml
[7] = compound concentration 50 ng/ml
[8] = compound concentration 100 ng/ml
[9] = compound concentration 200 ng/ml
[10] = compound concentration 80 ng/ml
[11] = compound concentration 400 ng/ml
[12] = compound concentration 2000 ng/ml
[13] = compound concentration 10000 ng/ml
[14] = no compound = 100%, final concentration 12.5 ng/ml
[15] = final concentration of compound 200 ng/ml
[16] = final concentration of compound 400 ng/ml
[17] = final concentration of compound 800 ng/ml
[18] = final concentration of compound 1600 ng/ml

| SMILES | improving effect on motor coordination (in words) [1] | Time of falling from rotarod [1] [s] | Endurable-slant-slope-angle (°) [2] [°] | Falling down frequency (count/min) [3] [count/min] | Action of enhancing cell growth (%) (PC12-HS cells [4]; [6]) | Action of enhancing cell growth (%) (PC12-HS cells [4]; [7]) | Action of enhancing cell growth (%) (PC12-HS cells [4]; [8]) | Action of enhancing cell growth (%) (PC12-HS cells [4]; [9]) | Action on neurite outgrowth (%) (PC12-HS cells [5]; [10]) | Action on neurite outgrowth (%) (PC12-HS cells [5]; [11]) | Action on neurite outgrowth (%) (PC12-HS cells [5]; [12]) | Action on neurite outgrowth (%) (PC12-HS cells [5]; [13]) | Cell survival percentage (%) (PC12-HS cells [4]; final concentration 50 ng/ml) | Cell survival percentage (%) (PC12-HS cells [4]; final concentration 200 ng/ml) | Cell survival percentage (%) (PC12-HS cells [4]; final concentration 800 ng/ml) | Cell survival percentage (%) (PC12-HS cells [4]; [14]) | optimum concentration for exhibiting cell-growth-promoting action (PC12-HS cells [4]) [ng/mL] | Evaluation B: Neurite-outgrowth action (PC12-HS cells [5]; 3 days) | Rate of cells exhibiting neurite outgrowth (%) (PC12-HS cells [5]; [15]) | Rate of cells exhibiting neurite outgrowth (%) (PC12-HS cells [5]; [16]) | other results |
| --- | --- | --- | --- | --- | --- | --- | --- | --- | --- | --- | --- | --- | --- | --- | --- | --- | --- | --- | --- | --- | --- |
| CCCCN1C=C/C(=C/C=C(/C=C/c2cc[n+](CCCC)c3ccccc23)c2cc[n+](CCCC)c3ccccc23)c2ccccc21 [NK-26] | particularly high improving effect on motor coordination | 90.0 ± 7.1 | 53.5 ± 1.3 | 1.0 ± 0.7 | 275 ± 19 | 357 ± 35 | 210 ± 12 | 210 ± 12 | 72 ± 4 | 71 ± 7 | 25 ± 7 | 10< % |  |  |  |  |  |  |  |  |  |
| CCCCCCCN1C=CC(=CC=C(C=Cc2cc[n+](CCCCCCC)c3ccccc23)c2cc[n+](CCCCCCC)c3ccccc23)c2ccccc21.[I-].[I-] [NK-28] |  | 69.0 ± 28 | 51.4 ± 2.2 | 1.3 ± 0.9 | 146 ± 10 | 111 ± 28 | 252 ± 65 | 470 ± 17 | 38 ± 1 | 64 ± 10 | 70 ± 11 | 46 ± 20% |  |  |  |  |  |  |  |  |  |
| CCN1/C(=C/C=C(/C=C/c2sc3ccccc3[n+]2CC)c2sc3ccccc3[n+]2CC)Sc2ccccc21.[I-].[I-] [NK-100] |  | 61.9 ± 9.4 | 50.3 ± 1.9 | 1.3 ± 0.7 |  |  |  |  |  |  |  |  | 288 ± 19 | 202 ± 4 | 82 ± 15 | 154 ± 156 | 50 | ∘ (The test sample with a neurite outgrowth rate of 30% or higher was judged to be equivalent or more (∘) compared with NK-4) | 36 ± 2% | 40 ± 8 | Rate of cells exhibiting neurite outgrowth (%) (PC12-HS cells [5]; [17]): 52 ± 7%; Rate of cells exhibiting neurite outgrowth (%) (PC12-HS cells [5]; [18]): 89 ± 6% |
| CCCCCCCCN1C=CC(=CC=C(C=Cc2cc[n+](CCCCCCCC)c3ccccc23)c2cc[n+](CCCCCCCC)c3ccccc23)c2ccccc21.[I-].[I-] [NK-147] |  | 56.5 ± 9.8 | 49.3 ± 2.1 | 1.5 ± 0.8 | 122 ± 14 | 136 ± 30 | 163 ± 60 | 404 ± 76 | 32 ± 7 | 50 ± 5 | 70 ± 11 | 35 ± 14% |  |  |  |  |  |  |  |  |  |
| CCCCCCCCCN1C(C)=CS\C1=C/C=C(\C=C\c1scc(C)[n+]1CCCCCCCCC)c1scc(C)[n+]1CCCCCCCCC.[I-].[I-] [NK-393] | particularly high improving effect on motor coordination | 86.5 ± 1.8 | 53.1 ± 1.5 | 0.9 ± 0.8 |  |  |  |  |  |  |  |  |  |  |  |  |  |  |  |  | Action of enhancing cell growth (%) (PC12-HS cells [4]; 100 μl/well of 100 ng/ml test solution, 3 days, control = 100): 550%; Percentage (%) of cells with neurite outgrowth (PC12-HS cells [5]; 50 μl/well of 2 μg/ml test solution + NGF final 5 ng/ml, 3 days): 68% |
| CC[n+]1ccccc1/C=C/c1ccc(N(C)C)cc1 [NK-557] |  | 39.9 ± 5.1 | 45.1 ± 3.7 | 6.5 ± 1.1 |  |  |  |  |  |  |  |  | 110 ± 6 | 241 ± 48 | 184 ± 42 | 97 ± 25 | 200 | ∘ (The test sample with a neurite outgrowth rate of 30% or higher was judged to be equivalent or more (∘) compared with NK-4) | 10> % | 20 ± 2 | Rate of cells exhibiting neurite outgrowth (%) (PC12-HS cells [5]; [17]): 43 ± 5%; Rate of cells exhibiting neurite outgrowth (%) (PC12-HS cells [5]; [18]): 84 ± 42% |

From patent US20120035187A1 (priority 2009, published 2012)
